In US20180353603A1, “Combination therapy including tumor associated antigen binding antibodies” (CT Atlantic Ltd., priority 2011, published 2018):

System: metastatic melanoma
Test: Clinical course of patient ZH311 after NY-ESO-1 vaccination and Ipilimumab
Assay type: in vivo
Description: A patient ZH311 was diagnosed in 2001 with metastatic melanoma. The tumor expressed NY-ESO-1 and was serum-positive for NY-ESO-1.
Survival time after treatment with Ipilimumab was 3 years.

## Ipilimumab: anti-CTLA4 antagonistic antibody
Patient ZH311
  survival time after treatment with Ipilimumab: 3 years
Patient ZH311, Ipilimumab starting in 2007 after NY-ESO-1 vaccination
  course of disease: stabilized course of disease
Patient ZH311, since diagnosis 2001, NY-ESO-1 vaccination then Ipilimumab, peer group median 10 months
  overall survival time: 10 years
